Data as given in US9790136B2, “Urea and nitrogen stabilizer compositions and methods and systems of making and using thereof” (Koch Agronomic Services, LLC, priority 2013, dated 2017).
Where two headings read alike, the source gives them in different places.

Experiments:
[1] = cited from earlier work
[2] = Water, HCHO and biuret content of urea compositions by IR and/or HPLC; assay type: physicochemical; conditions: average
Protocol: The water, HCHO, NBPT and biuret content of the urea compositions were analyzed by IR and/or HPLC. All concentrations were calculated in μg/ml unless otherwise noted. HPLC samples were prepared by weighing approximately 0.4 grams of sample into a 10-20 mL disposable glass vial or volumetric flask. For high concentration samples (>30% inhibitor), approximately 0.025 grams of sample was weighed into a 100 mL volumetric flask. For lower concentration samples, 10 mL of water was added and the sample was shaken until the sample was dissolved. For higher concentration samples, the sample was diluted to the 100 mL mark with diluent. A disposable dropper was used to transfer the sample into an autosampler vial. The sample was analyzed in duplicate including a diluent blank using the conditions below. The evaluation was carried out by the method of external standard with the calibration using a calibration line. A minimum of 2 sets of standards as set out below were run before and after unknowns. RSD is the relative deviation in rel. %, calculated from three repeats of sampling and two repeats of analysis of each sample (see EP 15688). […]
The chromatogram was evaluated at the wavelength of 214 nm. […]

[3] = SGN of granular product (product specifications); assay type: physicochemical; conditions: average
[4] = Crush strength of urea particles; assay type: physicochemical; conditions: average strength of 20 particles
Protocol: The crush strength was determined by subjecting individual particles of urea to a measured force, applied by means of a metal plunger. The force, at which the particle fractures, was taken as a measure of strength. The average strength of 20 particles were reported.

| Compound | half-life of NBPT ([1]; NBPT injected into the melted urea before granulation) | half-life of NBPT ([1]; surface-treated urea) | % HCHO [2] | SGN [3] | Crush Strength [4] |
| --- | --- | --- | --- | --- | --- |
| CCCCNP(N)(N)=S [NBPT, N-(n-butyl) thiophosphoric triamide] | more than one | about six | – | – | – |
| NC(N)=O [Urea] | – | – | <0.5% | 277.0 | 7.5 lbs |
